Assay results: article PMC10721898, “C5 methylation confers accessibility, stability and selectivity to picrotoxinin” (Nature Communications, 2023)

Key:
[1] = biological target: rat GABAA ion channel; assay: Non-selective rat GABAA ion channel [3H]TBOB binding (antagonist radioligand) assay, rat cerebral cortex; settings: for IC50: [3H]TBOB displacement, n = 1
Experimental: The structurally privileged 5-methyl series was assayed for binding to both GABAA receptors (rat cortex membrane preparations) and RDL (expressed in Xenopus oocytes) and compared directly to the parent PXN (C5-H) series. The parallel series of PXN and 5MePXN analogs allowed us to interrogate the effect of the synthetically-enabling and stabilizing C5 methyl. […]
4. Rat GABAA receptors binding assay
Non-selective rat GABAA ion channel [3H] TBOB binding (Antagonist Radioligand) assay was conducted by Eurofins Pharma Discovery Service of Eurofins Cerep, France.
Compound binding was calculated as a % inhibition of the binding of the radioactive ly labeled ligand [3H] TBOB (t‐[3H]Butylbicycloorthobenzoate) for rat GABAA ion channels.9 A 20.0 mM stock solution was prepared in DMSO from each test compound to evaluate radioligand displacement of [3H] TBOB from rat cerebral cortex GABAA receptors at different concentrations.
The results are expressed as a percent of control specific binding measured specific binding*100 […]
and as a percent inhibition of control specific binding
100 − (measured specific binding*100) […]
obtained in the presence of the test compounds.
The IC50 values (concentration causing a half -maximal inhibition of control specific binding) and Hill coefficients (nH) were determined by non -linear regression analysis of th e competition curves generated with mean replicate values using Hill equation curve fitting […]
where Y = specific binding, A = left asymptote of the curve, D = right asymptote of the curve , C = compound concentration, C 50 = IC50, and nH = slope factor. This analysis was performed using software developed at Cerep (Hill software) and validated by comparison with data generated by th e commercial software SigmaPlot® 4.0 for Windows ® (© 1997 by SPSS Inc.).
The inhibition constants (K i) were calculated using the Cheng Prusoff equation where L = concentration of radioligand in the assay, and KD = affinity of the radioligand for the recept or. A scatchard plot is used to determine the K D.
Supplementary Table 8. IC50 values of test compound
(§1) Compound IC50 (µM) Compound IC50 (µΜ)

[2] = biological target: T1, Drosophila RDL (Drosophila melanogaster, UniProt P25123); assay: RDL receptors assay: two-electrode voltage clamp electrophysiology in Xenopus oocytes; type: cell-based
T1 construct: expressed in transfected cells; host or cells: Xenopus oocytes (Ecocyte, Austin, TX) microinjected with capped cRNA
T1 sequence (P25123 45-606): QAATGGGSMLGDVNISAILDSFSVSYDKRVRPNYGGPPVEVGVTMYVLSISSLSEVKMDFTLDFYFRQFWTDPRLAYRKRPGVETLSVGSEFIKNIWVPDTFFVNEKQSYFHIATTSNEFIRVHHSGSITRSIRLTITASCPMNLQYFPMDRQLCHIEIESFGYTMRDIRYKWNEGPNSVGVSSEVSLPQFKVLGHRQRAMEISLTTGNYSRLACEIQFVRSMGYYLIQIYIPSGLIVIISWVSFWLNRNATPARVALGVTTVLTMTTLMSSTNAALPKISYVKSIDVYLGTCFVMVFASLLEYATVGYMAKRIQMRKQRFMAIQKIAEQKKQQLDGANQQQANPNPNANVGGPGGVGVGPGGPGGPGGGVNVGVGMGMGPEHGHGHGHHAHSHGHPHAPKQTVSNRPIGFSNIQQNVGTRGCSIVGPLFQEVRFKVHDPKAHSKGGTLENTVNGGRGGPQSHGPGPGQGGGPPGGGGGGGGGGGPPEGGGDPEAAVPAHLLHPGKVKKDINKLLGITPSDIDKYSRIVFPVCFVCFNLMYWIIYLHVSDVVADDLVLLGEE
Experimental: 5. RDL receptors binding assay
The Drosophila RDL sequence (NP_01261616.1) was cloned into the pGH19 backbone via Gibson assembly for capped cRNA synthesis using the T7 mMessage mMachine kit (Invitrogen). cRNA samples were stored at - 80 °C until use. Ready to inject Xenopus oocytes were obtained from Ecocyte (Austin, TX) and microinjected using a Nanoinject III (Drummond Scientific) with 4 nL of cRNA (1 μg/μL). The oocytes were then incubated at 16 °C in ND96 storage solution (93.5 mM NaCl, 2 mM KCl, 1.8 mM CaCl 2·2H2O, 2 mM MgCl 2·6H2O, 5 mM HEPES at pH 7.5). Recording were made 1 -6 days post injection.
Electrophysiology experiments were performed using an automated two -electrode voltage clamp set -up (Roboocyte 2, Mutlichannel Systems). Recording head were filled with 3M KCl and gave resistan ce of 100-2000 kΩ in medium. Membrane potential was held at -60 mV and current signal was sampled at 20 kHz.
Experiments were performed at room temperature using Modified Barth’s Saline (MBS) (88 mM NaCl, 1 mM KCl, 2.4 mM NaHCO 3, 15 mM HEPES, 0.3 mM Ca(NO3)2, 0.41 mM CaCl 2, and 0.82 mM MgSO 4·7H2O at pH 7.4). Oocytes were perfused with MBS at 5 mL/min in all assays. GABA and all compounds were dissolved in MBS and a 0.1% DMSO negative control was utilized to correct for any solvent effect.
Initial block potential of each compound was assessed utilizing a pre -incubation method (MBS (30 sec), 10 μM GABA (15 sec), MBS wash (60 sec), compound (60 sec), compound + 10 μM GABA (15 sec), compound (60 sec), compound + 10 μM GABA (15 sec), MBS wash (60 sec) with 10 μM of each test compound. The maximum signal of the second co -application was compared to the initial GABA response to determine the % block and then standardized against the corresponding value of the 0.1% DMSO control. Dose responses were performed for any compound showing >50% block in the initial test using 10, 1, and 0.1 μM. The IC50 values were fit using an inhibitor vs response 4 -parameter fit (GraphPad Prism 8.1.2).
Supplementary Table 9. IC50 values of test compound
as §1

For `C=C(C)[C@@H]1[C@H]2OC(=O)[C@@H]1[C@]1(O)C[C@H]3O[C@]34C(=O)O[C@H]2[C@]14C` [PXN, picrotoxinin], the IC50 ([1]; Supplementary Table 8 (PXN series)) was 210 nM and the IC50 [2] was 800 nM.

In the case of `C=C(C)C1C2OC(=O)C1(C)C1(O)CC3OC34C(=O)OC2C41C` (centres unmarked) [5MePXN, 5-methylpicrotoxinin], the “loss in potency from PXN” value ([1]; [3H]TBOB binding) is reported as 10 fold, the IC50 ([1]; Supplementary Table 8 (5MePXN series)) is reported as 1800 nM and the IC50 [2] is reported as 1710 nM.
